Assays:
[1] = system: JeKo-1.Luc cells; assay: Anti-tumor efficacy model, JeKo-1.Luc; assay type: in vivo, NSG mice; conditions: RPM 1 mg kg^−1 daily for 2 weeks
Protocol: Immunocompromised NOD scid gamma (NSG) mice were implanted with 5E5 Jeko-1 tumor cells and the tumor cells were allowed to engraft for 6 days. After the six days of engraftment, 1E6 unedited or edited 19CAR-T cells were infused into tumor bearing mice (N=8 mice evaluated for each experimental condition) and administered daily for 2 weeks (dotted vertical lines) either a vehicle (5% PEG400+5% Tween80) or tacrolimus (10 mg/kg in 5% PEG400+5% Tween80). Tumor burden was assessed twice per week by measuring bioluminescence using an IVIS® spectral imaging instrument. In FIGS. 13A and 13B, each data point represents a measurement taken for an individual mouse.
For the study described in FIGS. 18A to 18G, NSG mice were intravenously injected with 5×10^5 JeKo-1.Luc cells at day 0. On day 7, mice initiated daily intraperitoneal injections of VEH, RPM (1 mg kg^−1), or TAC (10 mg kg^−1) for 2 weeks. […] For all studies, tumor burden was measured every 3-4 days post-implant by bioluminescence imaging (IVIS Spectrum, Spectral Instruments Imaging) 30 minutes after intraperitoneally injecting mice with 150 mg kg^−1 XenoLight D-Luciferin (PerkinElmer). The acquisition time was automatically determined by the instrument for each exposure, and quantification of flux from imaging datasets was performed with the Living Image Studio software (Perkin Elmer). […]

[2] = system: mTOR and downstream substrates S6Rp and 4E-BP1; assay: Phosphorylation of mTOR, S6 and 4EBP1 in malignant B cell lines; assay type: cell-based, human; conditions: JeKo-1, Raji and Nalm6 cells treated with DMSO or RPM
Protocol: (§1) FIGS. 26A to 26E provide histograms and plots showing malignant B cell lines were sensitive to Rapamycin treatment in vitro. FIG. 26A provides histograms showing geometric median fluorescent intensity (MFI) of phosphorylated mTOR (pS2448), S6 (pS235/[…]) and 4EBP1 (pT36/T45) in JeKo-1, Raji and Nalm6 cell lines, as well as primary human monocytes and bulk lymphocytes. FIGS. 26B to 26D relate to an experiment where JeKo-1, Raji and Nalm6 cells were treated with DMSO or Rapamycin (RPM) and then analyzed for phosphorylation level of mTOR (FIG. 26B), S6 (FIG. 26C) and 4EBP1 (FIG. 26D). FIG. 26E provides plots showing JeKo-1, Raji and Nalm6 cell growth kinetics after treatment with DMSO or RPM at different concentrations. Symbols indicate mean and error bars show ±s.e.m.
Live cells were discriminated by staining negative for Fixable Viability Dye eFluor780 (eBioscience). CountBright Counting Beads were used according to the manufacturer's instructions to determine concentration of immune cells from whole blood. Intracellular cytokines were detected using Cell Fixation & Cell Permeability Kit (Invitrogen) following manufacturer's protocol with anti-human antibodies from Biolegend: TNF-a (MAb11), IFN-g (4S.B3), IL-2 (MQH-17H12) and GM-CSF (BVD2-21C11). […] Data was analyzed using FlowJo software v.10 (Tree Star).

[3] = system: Nalm6; assay: Cell growth kinetics with rapamycin, Nalm6; assay type: cell-based, human; conditions: RPM at different concentrations
Protocol: as §1

CO[C@H]1C[C@@H]2CC[C@@H](C)[C@@](O)(O2)C(=O)C(=O)N2CCCC[C@H]2C(=O)O[C@H]([C@H](C)C[C@@H]2CC[C@@H](O)[C@H](OC)C2)CC(=O)[C@H](C)/C=C(\C)[C@@H](O)[C@@H](OC)C(=O)[C@H](C)C[C@H](C)/C=C/C=C/C=C/1C [rapamycin, Rapamycin]
JeKo-1 growth in control mice [1]: mitigated JeKo-1 growth in control mice
protein phosphorylation of mTOR and downstream substrates S6Rp and 4E-BP1 [2]: attenuated protein phosphorylation
in vitro proliferation [3]: inhibited in vitro proliferation

— patent US20260183393A1, “IMMUNOSUPPRESSANT-RESISTANT MODIFIED ALLOGENEIC MODIFIED IMMUNE CELLS AND METHODS FOR USE THEREOF” (Beam Therapeutics Inc., priority 2023, published 2026)
